Measured values from patent US20230015308A1, “SUBSTITUTED THIAZOLE AROMATIC RING-BASED COMPOUND AND PREPARATION METHOD THEREFOR, HERBICIDAL COMPOSITION AND USE THEREOF” (QINGDAO KINGAGROOT CHEMICAL COMPOUND CO., LTD., priority 2019, published 2023).

Each compound was assayed on Amaranthus retroflexus (assay: Weeding effect in post-emergence stage (greenhouse pot test)). Settings: 15 g a.i./ha, 3 weeks after application.
Format: in vivo
Excerpt: (§1) The activity level criteria for plant damage (i.e., growth control rate) are as follows:
(§2) Level 5: growth control rate is above 85%;
(§3) Level 4: growth control rate is greater than or equal to 60% and less than 85%;
(§4) Level 3: growth control rate is greater than or equal to 40% and less than 60%;
(§5) Level 2: growth control rate is greater than or equal to 20% and less than 40%;
(§6) Level 1: growth control rate is greater than or equal to 5% and less than 20%;
(§7) Level 0: growth control rate is less than 5%.
(§8) The above growth control rates are fresh weight control rates.
(§9) Experiment on weeding effect in post-emergence stage:
(§10) Monocotyledonous and dicotyledonous weed seeds (Descurainia sophia, Capsella bursa-pastoris, Abutilon theophrasti, Galium aparine, Stellaria media, Lithospermum arvense, Rorippa indica, Alopecurus aequalis, Alopecurus japonicus, Beckmannia syzigachne, Sclerochloa dura, Conyza Canadensis, Phleum paniculatum, Veronica didyma Tenore, Eleusine indica, Bromus japonicus, Aegilops tauschii, Phalaris arundinacea, Amaranthus retroflexus, Chenopodium album, Commelina communis, Sonchus arvensis, Convolvulus arvensis, Cirsium setosum, Solanum nigrum, Acalypha australis, Digitaria sanguinalis, Echinochloa crusgalli, Setaria viridis, Setaria glauca, Leptochloa chinensis, Monochoria vaginalis, Sagittaria trifolia, Scirpus juncoides, Cyperus rotundus, Cyperus iria, Cyperus difformis, Fimbristylis, Portulaca oleracea, Xanthium sibiricum, Pharbitis nil) and major crop seeds (wheat, corn, rice, soybean, cotton, oilseed rape, millet, sorghum, potato, sesame, ricinus) were placed in plastic pots filled with soil, then covered with 0.5-2 cm of soil, allowed to grow in a good greenhouse environment. After 2 weeks of sowing, the test plants were treated in the 2-3 leaf stage. The tested compounds of the present invention were respectively dissolved in acetone, then added with Tween 80 and 1.5 liter/ha of emulsifiable concentrate of methyl oleate as synergist, diluted with a certain amount of water to obtain a solution with a certain concentration, and sprayed with a spray tower onto the plants. After the application, the plants were cultured for 3 weeks in the greenhouse, and then the experimental results of the weeding were counted. The doses of the used compounds were 500, 250, 125, 60, 15 g a.i./ha, and the averages were obtained by repeating for three times.

Row | SMILES | Amaranthus retroflexus, activity level (fresh weight growth control rate)
1 | CCOC(=O)c1cnc(-c2cc(-n3c(=O)cc(C(F)(F)F)n(C)c3=O)c(F)cc2Cl)s1 [1-2] | 5 (Level 5: growth control rate is above 85%)
2 | CCOC(=O)c1cnc(-c2cc(-n3c(=S)cc(C(F)(F)F)n(C)c3=O)c(F)cc2Cl)s1 [1-103] | 5 (Level 5: growth control rate is above 85%)
3 | CCOC(=O)c1cnc(-c2nc(-n3c(=O)cc(C(F)(F)F)n(C)c3=O)c(F)cc2Cl)s1 [1-107] | 5 (Level 5: growth control rate is above 85%)
4 | CCOC(=O)c1cnc(-c2cc(-n3c(=O)n(C)c(=S)n(C)c3=O)c(F)cc2Cl)s1 [1-113] | 5 (Level 5: growth control rate is above 85%)

The compounds below were run on Beckmannia syzigachne in the same assay as above. Settings: 15 g a.i./ha, 3 weeks after application.
Format: in vivo
Excerpt: as §1, §2, §3, §4, §5, §6, §7, §8, §9, §10

Row | SMILES | Beckmannia syzigachne, activity level (fresh weight growth control rate)
5 | CCOC(=O)c1cnc(-c2cc(-n3c(=O)cc(C(F)(F)F)n(C)c3=O)c(F)cc2Cl)s1 [1-2] | 4 (Level 4: growth control rate is greater than or equal to 60% and less than 85%)
6 | CCOC(=O)c1cnc(-c2cc(-n3c(=S)cc(C(F)(F)F)n(C)c3=O)c(F)cc2Cl)s1 [1-103] | 4 (Level 4: growth control rate is greater than or equal to 60% and less than 85%)
7 | CCOC(=O)c1cnc(-c2nc(-n3c(=O)cc(C(F)(F)F)n(C)c3=O)c(F)cc2Cl)s1 [1-107] | 5 (Level 5: growth control rate is above 85%)
8 | CCOC(=O)c1cnc(-c2cc(-n3c(=O)n(C)c(=S)n(C)c3=O)c(F)cc2Cl)s1 [1-113] | 4 (Level 4: growth control rate is greater than or equal to 60% and less than 85%)

The compounds below were run on Abutilon theophrasti in the same assay as above. Settings: 15 g a.i./ha, 3 weeks after application.
Format: in vivo
Excerpt: as §1, §2, §3, §4, §5, §6, §7, §8, §9, §10

Row | SMILES | Abutilon theophrasti, activity level (fresh weight growth control rate)
9 | CCOC(=O)c1cnc(-c2cc(-n3c(=O)cc(C(F)(F)F)n(C)c3=O)c(F)cc2Cl)s1 [1-2] | 5 (Level 5: growth control rate is above 85%)
10 | CCOC(=O)c1cnc(-c2cc(-n3c(=S)cc(C(F)(F)F)n(C)c3=O)c(F)cc2Cl)s1 [1-103] | 5 (Level 5: growth control rate is above 85%)
11 | CCOC(=O)c1cnc(-c2nc(-n3c(=O)cc(C(F)(F)F)n(C)c3=O)c(F)cc2Cl)s1 [1-107] | 5 (Level 5: growth control rate is above 85%)
12 | CCOC(=O)c1cnc(-c2cc(-n3c(=O)n(C)c(=S)n(C)c3=O)c(F)cc2Cl)s1 [1-113] | 5 (Level 5: growth control rate is above 85%)

These compounds were tested on Veronica didyma Tenore in the same assay as above. Settings: 15 g a.i./ha, 3 weeks after application.
Format: in vivo
Excerpt: as §1, §2, §3, §4, §5, §6, §7, §8, §9, §10

Row | SMILES | Veronica didyma Tenore, activity level (fresh weight growth control rate)
13 | CCOC(=O)c1cnc(-c2cc(-n3c(=O)cc(C(F)(F)F)n(C)c3=O)c(F)cc2Cl)s1 [1-2] | 5 (Level 5: growth control rate is above 85%)
14 | CCOC(=O)c1cnc(-c2cc(-n3c(=S)cc(C(F)(F)F)n(C)c3=O)c(F)cc2Cl)s1 [1-103] | 5 (Level 5: growth control rate is above 85%)
15 | CCOC(=O)c1cnc(-c2nc(-n3c(=O)cc(C(F)(F)F)n(C)c3=O)c(F)cc2Cl)s1 [1-107] | 5 (Level 5: growth control rate is above 85%)
16 | CCOC(=O)c1cnc(-c2cc(-n3c(=O)n(C)c(=S)n(C)c3=O)c(F)cc2Cl)s1 [1-113] | 5 (Level 5: growth control rate is above 85%)

Each compound was assayed on Alopecurus japonicus in the same assay as above. Settings: 15 g a.i./ha, 3 weeks after application.
Format: in vivo
Excerpt: as §1, §2, §3, §4, §5, §6, §7, §8, §9, §10

Row | SMILES | Alopecurus japonicus, activity level (fresh weight growth control rate)
17 | CCOC(=O)c1cnc(-c2cc(-n3c(=O)cc(C(F)(F)F)n(C)c3=O)c(F)cc2Cl)s1 [1-2] | 4 (Level 4: growth control rate is greater than or equal to 60% and less than 85%)
18 | CCOC(=O)c1cnc(-c2cc(-n3c(=S)cc(C(F)(F)F)n(C)c3=O)c(F)cc2Cl)s1 [1-103] | 4 (Level 4: growth control rate is greater than or equal to 60% and less than 85%)
19 | CCOC(=O)c1cnc(-c2nc(-n3c(=O)cc(C(F)(F)F)n(C)c3=O)c(F)cc2Cl)s1 [1-107] | 5 (Level 5: growth control rate is above 85%)
20 | CCOC(=O)c1cnc(-c2cc(-n3c(=O)n(C)c(=S)n(C)c3=O)c(F)cc2Cl)s1 [1-113] | 4 (Level 4: growth control rate is greater than or equal to 60% and less than 85%)

Each compound was assayed on Setaria viridis in the same assay as above. Settings: 15 g a.i./ha, 3 weeks after application.
Format: in vivo
Excerpt: as §1, §2, §3, §4, §5, §6, §7, §8, §9, §10

Row | SMILES | Setaria viridis, activity level (fresh weight growth control rate)
21 | CCOC(=O)c1cnc(-c2cc(-n3c(=O)cc(C(F)(F)F)n(C)c3=O)c(F)cc2Cl)s1 [1-2] | 5 (Level 5: growth control rate is above 85%)
22 | CCOC(=O)c1cnc(-c2cc(-n3c(=S)cc(C(F)(F)F)n(C)c3=O)c(F)cc2Cl)s1 [1-103] | 5 (Level 5: growth control rate is above 85%)
23 | CCOC(=O)c1cnc(-c2nc(-n3c(=O)cc(C(F)(F)F)n(C)c3=O)c(F)cc2Cl)s1 [1-107] | 5 (Level 5: growth control rate is above 85%)
24 | CCOC(=O)c1cnc(-c2cc(-n3c(=O)n(C)c(=S)n(C)c3=O)c(F)cc2Cl)s1 [1-113] | 5 (Level 5: growth control rate is above 85%)

The compounds below were run on Echinochloa crusgalli in the same assay as above. Settings: 15 g a.i./ha, 3 weeks after application.
Format: in vivo
Excerpt: as §1, §2, §3, §4, §5, §6, §7, §8, §9, §10

Row | SMILES | Echinochloa crusgalli, activity level (fresh weight growth control rate)
25 | CCOC(=O)c1cnc(-c2cc(-n3c(=O)cc(C(F)(F)F)n(C)c3=O)c(F)cc2Cl)s1 [1-2] | 5 (Level 5: growth control rate is above 85%)
26 | CCOC(=O)c1cnc(-c2cc(-n3c(=S)cc(C(F)(F)F)n(C)c3=O)c(F)cc2Cl)s1 [1-103] | 5 (Level 5: growth control rate is above 85%)
27 | CCOC(=O)c1cnc(-c2nc(-n3c(=O)cc(C(F)(F)F)n(C)c3=O)c(F)cc2Cl)s1 [1-107] | 5 (Level 5: growth control rate is above 85%)
28 | CCOC(=O)c1cnc(-c2cc(-n3c(=O)n(C)c(=S)n(C)c3=O)c(F)cc2Cl)s1 [1-113] | 5 (Level 5: growth control rate is above 85%)

Each compound was assayed on Galium aparine in the same assay as above. Settings: 15 g a.i./ha, 3 weeks after application.
Format: in vivo
Excerpt: as §1, §2, §3, §4, §5, §6, §7, §8, §9, §10

Row | SMILES | Galium aparine, activity level (fresh weight growth control rate)
29 | CCOC(=O)c1cnc(-c2cc(-n3c(=O)cc(C(F)(F)F)n(C)c3=O)c(F)cc2Cl)s1 [1-2] | 5 (Level 5: growth control rate is above 85%)
30 | CCOC(=O)c1cnc(-c2cc(-n3c(=S)cc(C(F)(F)F)n(C)c3=O)c(F)cc2Cl)s1 [1-103] | 5 (Level 5: growth control rate is above 85%)
31 | CCOC(=O)c1cnc(-c2nc(-n3c(=O)cc(C(F)(F)F)n(C)c3=O)c(F)cc2Cl)s1 [1-107] | 5 (Level 5: growth control rate is above 85%)
32 | CCOC(=O)c1cnc(-c2cc(-n3c(=O)n(C)c(=S)n(C)c3=O)c(F)cc2Cl)s1 [1-113] | 5 (Level 5: growth control rate is above 85%)

These compounds were tested on Digitaria sanguinalis in the same assay as above. Settings: 15 g a.i./ha, 3 weeks after application.
Format: in vivo
Excerpt: as §1, §2, §3, §4, §5, §6, §7, §8, §9, §10

Row | SMILES | Digitaria sanguinalis, activity level (fresh weight growth control rate)
33 | CCOC(=O)c1cnc(-c2cc(-n3c(=O)cc(C(F)(F)F)n(C)c3=O)c(F)cc2Cl)s1 [1-2] | 5 (Level 5: growth control rate is above 85%)
34 | CCOC(=O)c1cnc(-c2cc(-n3c(=S)cc(C(F)(F)F)n(C)c3=O)c(F)cc2Cl)s1 [1-103] | 5 (Level 5: growth control rate is above 85%)
35 | CCOC(=O)c1cnc(-c2nc(-n3c(=O)cc(C(F)(F)F)n(C)c3=O)c(F)cc2Cl)s1 [1-107] | 5 (Level 5: growth control rate is above 85%)
36 | CCOC(=O)c1cnc(-c2cc(-n3c(=O)n(C)c(=S)n(C)c3=O)c(F)cc2Cl)s1 [1-113] | 4 (Level 4: growth control rate is greater than or equal to 60% and less than 85%)
